Test results reported in patent publication US8133913B2, “Substituted indeno [1,2-b]indole derivatives as novel inhibitors of protein kinase CK2 and their use as tumor therapeutic agents, cytostatics and diagnostic aids” (Heinrich-Heine Universitat Dusseldof, priority 2006, dated 2012).
Read-outs that look alike come from different tables or passages of the source.

What was measured:
Test in all cases: Radiometric protein kinase assay (33PanQinase Activity Assay)
Assay type in all cases: biochemical
[1] = molecular target: T1, CDK4/CycD1 (Homo sapiens, UniProt P11802)
T1 construct: made in house; host or cells: Sf9 insect cells, baculovirus
Source text: (§1) AKTI1, ARK5, Aurora-A, Aurora-B, B-RAF-VE, CDK2/CycA, CDK4/CycD1, CK2-alpha1 (catalytic subunit of CK2), EGF-R, EPHB4, ERBB2, FAK, IGF1-R, SRC, VEGF-R2, VEGF-R3, FLT3, INS-R, MET, PDGFR-beta, PLK1, SAK, TIE2, COT.
(§2) All the protein kinases were expressed in Sf9 insect cells as human recombinant GST fusion proteins or His-tagged proteins by the baculovirus expression system. Kinases were purified by affinity chromatography either by GSH-agarose (Sigma) or Ni—NTH-agarose (Qiagen). The purity of the kinases was tested by SDS-PAGE/silver staining, and the identity of the kinases was verified by Western blot analysis with specific antibodies or mass spectroscopy.
(§3) A radiometric protein kinase assay (33PanQinase® Activity Assay) was used to measure the kinase activity for the 24 protein kinases. The kinase assays were carried out in 96-well FlashPlates™ from Perkin Elmer/NEN (Boston, Mass., USA) in a reaction volume of 50 μl. The reaction mixture was pipetted in 4 steps in the following sequence: • 20 μl of assay buffer • 5 μl of ATP solution (in H2O) • 5 μl of test compound (in 10% DMSO) • 10 μl of substrate/10 μl of enzyme solution (premixed)
(§4) The assays for all the enzymes contained 60 mM HEPES-NaOH, pH 7.5, 3 mM MgCl2, 3 mM MnCl2, 3 μM Na orthovanadate, 1.2 mM DTT, 50 μg/ml PEG20000, 1 μM [γ-^33P]-ATP (about 5×10^5 cpm per well).
(§5) The reaction mixture was incubated at 30° C. for 80 minutes. The reaction was stopped with 50 μl of 2% (v/v) H3PO4. The plates were aspirated and washed twice with 200 μl of 0.9% (w/v) NaCl. The incorporation of ^33Pi was determined using a microtiter plates scintillation counter (Microbeta Trilux, Wallac).

[2] = molecular target: T2, MET (Homo sapiens, UniProt P08581)
T2 construct: made in house; host or cells: Sf9 insect cells, baculovirus
Source text: as §1, §2, §3, §4, §5

[3] = molecular target: T3, IGF1-R (Homo sapiens, UniProt P08069)
T3 construct: made in house; host or cells: Sf9 insect cells, baculovirus
Source text: as §1, §2, §3, §4, §5

[4] = molecular target: T4, Aurora-A (Homo sapiens, UniProt O14965)
T4 construct: made in house; host or cells: Sf9 insect cells, baculovirus
T4 sequence (O14965 1-403): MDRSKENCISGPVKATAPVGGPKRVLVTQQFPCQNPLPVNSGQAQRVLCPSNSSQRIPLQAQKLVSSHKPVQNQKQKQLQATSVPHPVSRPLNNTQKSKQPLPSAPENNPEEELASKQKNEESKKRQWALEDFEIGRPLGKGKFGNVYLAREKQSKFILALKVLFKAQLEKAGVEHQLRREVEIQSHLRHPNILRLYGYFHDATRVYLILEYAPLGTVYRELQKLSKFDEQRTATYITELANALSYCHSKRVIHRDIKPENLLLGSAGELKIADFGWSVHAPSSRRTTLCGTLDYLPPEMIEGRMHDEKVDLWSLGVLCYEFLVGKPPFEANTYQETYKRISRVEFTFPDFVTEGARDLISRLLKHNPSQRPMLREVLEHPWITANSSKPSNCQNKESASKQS
Source text: as §1, §2, §3, §4, §5

[5] = molecular target: T5, VEGF-R2 (Homo sapiens, UniProt P35968)
T5 construct: made in house; host or cells: Sf9 insect cells, baculovirus
Source text: as §1, §2, §3, §4, §5

[6] = molecular target: T6, ARK5 (Homo sapiens, UniProt O60285)
T6 construct: made in house; host or cells: Sf9 insect cells, baculovirus
T6 sequence (O60285 1-661): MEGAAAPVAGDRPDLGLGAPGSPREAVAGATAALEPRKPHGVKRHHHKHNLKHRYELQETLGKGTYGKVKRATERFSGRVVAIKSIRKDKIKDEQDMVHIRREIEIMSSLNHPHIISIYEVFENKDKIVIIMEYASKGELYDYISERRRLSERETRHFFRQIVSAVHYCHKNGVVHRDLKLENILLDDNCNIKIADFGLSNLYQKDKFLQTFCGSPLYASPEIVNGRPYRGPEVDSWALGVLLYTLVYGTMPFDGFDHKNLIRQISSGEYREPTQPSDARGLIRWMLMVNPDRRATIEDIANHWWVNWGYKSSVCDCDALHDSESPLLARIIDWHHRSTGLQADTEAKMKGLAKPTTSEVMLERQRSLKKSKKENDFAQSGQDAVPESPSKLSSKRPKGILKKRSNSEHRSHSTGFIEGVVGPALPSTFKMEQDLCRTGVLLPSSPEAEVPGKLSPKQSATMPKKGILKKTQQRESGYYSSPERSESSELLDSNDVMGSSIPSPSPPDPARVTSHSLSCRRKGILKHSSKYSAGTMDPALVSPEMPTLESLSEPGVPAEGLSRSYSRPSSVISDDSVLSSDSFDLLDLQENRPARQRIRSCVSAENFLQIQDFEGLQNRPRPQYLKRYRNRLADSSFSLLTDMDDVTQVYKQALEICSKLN
Source text: as §1, §2, §3, §4, §5

[7] = 1 μM ATP, read-out: IC50 values [μM] CDK4/CycD1
[8] = 1 μM ATP, read-out: IC50 values [μM] MET
[9] = 1 μM ATP, read-out: IC50 values [μM] IGF1-R
[10] = 1 μM ATP, read-out: IC50 values [μM] Aurora-A
[11] = 1 μM ATP, read-out: IC50 values [μM] VEGF-R2
[12] = 1 μM ATP, read-out: IC50 values [μM] ARK5

T1 sequence (P11802 whole entry): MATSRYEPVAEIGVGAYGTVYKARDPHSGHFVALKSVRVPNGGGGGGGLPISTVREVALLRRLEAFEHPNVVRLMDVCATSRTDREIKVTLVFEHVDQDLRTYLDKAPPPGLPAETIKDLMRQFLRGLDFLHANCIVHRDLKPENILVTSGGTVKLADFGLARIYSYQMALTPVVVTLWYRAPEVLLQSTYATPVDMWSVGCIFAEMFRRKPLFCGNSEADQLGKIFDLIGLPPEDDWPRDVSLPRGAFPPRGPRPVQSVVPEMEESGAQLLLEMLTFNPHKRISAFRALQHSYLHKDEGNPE
T1 sequence (P24385 whole entry partner): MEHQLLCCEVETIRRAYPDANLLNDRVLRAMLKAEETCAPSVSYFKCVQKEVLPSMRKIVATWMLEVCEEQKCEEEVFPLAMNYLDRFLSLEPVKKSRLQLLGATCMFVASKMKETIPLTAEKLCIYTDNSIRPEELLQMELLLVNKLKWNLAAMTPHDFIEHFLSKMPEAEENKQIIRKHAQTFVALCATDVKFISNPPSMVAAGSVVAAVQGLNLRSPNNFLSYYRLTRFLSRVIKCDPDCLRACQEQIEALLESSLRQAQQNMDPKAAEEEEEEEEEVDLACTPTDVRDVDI
T5 sequence (P35968 20-1356): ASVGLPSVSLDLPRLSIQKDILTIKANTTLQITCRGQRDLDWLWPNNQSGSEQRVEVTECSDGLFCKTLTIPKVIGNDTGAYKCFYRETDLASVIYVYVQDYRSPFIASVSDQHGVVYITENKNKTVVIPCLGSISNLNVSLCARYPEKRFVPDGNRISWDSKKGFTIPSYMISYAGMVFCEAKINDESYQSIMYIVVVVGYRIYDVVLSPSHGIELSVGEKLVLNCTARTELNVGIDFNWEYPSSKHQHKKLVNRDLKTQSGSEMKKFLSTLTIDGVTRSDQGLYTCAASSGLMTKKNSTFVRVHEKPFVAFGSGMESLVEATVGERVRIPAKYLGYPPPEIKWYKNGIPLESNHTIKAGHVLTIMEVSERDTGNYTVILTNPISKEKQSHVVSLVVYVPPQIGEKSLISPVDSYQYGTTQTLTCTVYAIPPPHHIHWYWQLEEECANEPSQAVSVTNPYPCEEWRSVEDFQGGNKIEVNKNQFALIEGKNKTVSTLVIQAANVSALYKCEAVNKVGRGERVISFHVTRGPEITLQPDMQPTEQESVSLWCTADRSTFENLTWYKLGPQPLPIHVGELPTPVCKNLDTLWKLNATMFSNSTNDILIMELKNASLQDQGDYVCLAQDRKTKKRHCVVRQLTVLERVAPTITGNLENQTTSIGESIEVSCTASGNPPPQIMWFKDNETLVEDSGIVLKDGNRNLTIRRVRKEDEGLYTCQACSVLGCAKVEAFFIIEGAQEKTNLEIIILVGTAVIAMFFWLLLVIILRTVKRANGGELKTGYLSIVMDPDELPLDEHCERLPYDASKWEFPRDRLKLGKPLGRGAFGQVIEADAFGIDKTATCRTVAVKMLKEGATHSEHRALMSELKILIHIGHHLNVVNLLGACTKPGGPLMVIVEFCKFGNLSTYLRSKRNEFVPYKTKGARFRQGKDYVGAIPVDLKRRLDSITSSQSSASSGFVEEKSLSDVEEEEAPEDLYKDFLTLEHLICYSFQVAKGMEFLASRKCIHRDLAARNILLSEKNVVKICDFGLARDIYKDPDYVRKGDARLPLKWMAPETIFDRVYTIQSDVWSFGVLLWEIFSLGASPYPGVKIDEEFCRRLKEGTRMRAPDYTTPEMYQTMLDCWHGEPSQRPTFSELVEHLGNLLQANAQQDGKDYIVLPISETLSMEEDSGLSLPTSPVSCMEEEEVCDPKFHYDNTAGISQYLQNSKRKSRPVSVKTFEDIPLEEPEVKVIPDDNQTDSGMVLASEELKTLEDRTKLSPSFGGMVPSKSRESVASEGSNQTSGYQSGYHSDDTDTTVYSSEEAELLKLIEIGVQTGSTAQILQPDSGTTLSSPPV
T3 sequence (P08069 31-1367): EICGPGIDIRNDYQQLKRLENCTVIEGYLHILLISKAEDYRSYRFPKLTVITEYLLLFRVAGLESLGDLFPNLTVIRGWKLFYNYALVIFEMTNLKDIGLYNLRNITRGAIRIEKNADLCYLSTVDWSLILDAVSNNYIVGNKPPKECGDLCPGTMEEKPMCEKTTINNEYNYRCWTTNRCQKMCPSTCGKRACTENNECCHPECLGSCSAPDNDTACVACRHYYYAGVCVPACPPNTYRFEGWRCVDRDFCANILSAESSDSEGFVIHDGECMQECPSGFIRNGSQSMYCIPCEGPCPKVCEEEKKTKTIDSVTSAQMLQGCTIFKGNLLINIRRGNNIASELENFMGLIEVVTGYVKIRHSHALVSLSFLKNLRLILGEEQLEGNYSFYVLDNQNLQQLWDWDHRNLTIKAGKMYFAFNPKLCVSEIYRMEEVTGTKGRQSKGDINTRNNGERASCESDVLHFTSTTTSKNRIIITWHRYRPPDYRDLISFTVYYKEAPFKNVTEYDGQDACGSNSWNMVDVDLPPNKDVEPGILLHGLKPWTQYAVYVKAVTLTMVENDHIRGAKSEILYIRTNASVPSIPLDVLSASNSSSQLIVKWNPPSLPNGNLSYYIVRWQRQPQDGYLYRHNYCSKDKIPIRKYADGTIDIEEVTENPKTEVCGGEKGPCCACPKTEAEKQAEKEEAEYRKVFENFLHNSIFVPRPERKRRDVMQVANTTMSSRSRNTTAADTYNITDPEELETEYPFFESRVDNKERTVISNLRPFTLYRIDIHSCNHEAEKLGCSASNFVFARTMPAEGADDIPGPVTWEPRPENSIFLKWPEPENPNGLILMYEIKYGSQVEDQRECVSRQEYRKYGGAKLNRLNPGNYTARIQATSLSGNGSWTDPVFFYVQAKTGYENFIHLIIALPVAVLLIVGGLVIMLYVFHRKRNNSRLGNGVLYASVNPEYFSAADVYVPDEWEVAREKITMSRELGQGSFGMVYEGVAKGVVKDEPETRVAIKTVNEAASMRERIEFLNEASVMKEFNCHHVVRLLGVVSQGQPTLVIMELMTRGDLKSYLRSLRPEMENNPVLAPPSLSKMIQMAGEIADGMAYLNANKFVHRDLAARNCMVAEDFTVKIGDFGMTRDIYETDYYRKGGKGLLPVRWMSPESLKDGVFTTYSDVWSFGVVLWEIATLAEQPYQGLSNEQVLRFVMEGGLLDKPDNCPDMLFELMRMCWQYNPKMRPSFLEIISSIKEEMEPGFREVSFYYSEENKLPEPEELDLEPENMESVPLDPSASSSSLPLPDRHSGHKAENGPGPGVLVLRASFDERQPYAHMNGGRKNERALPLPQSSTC
T2 sequence (P08581 25-1390): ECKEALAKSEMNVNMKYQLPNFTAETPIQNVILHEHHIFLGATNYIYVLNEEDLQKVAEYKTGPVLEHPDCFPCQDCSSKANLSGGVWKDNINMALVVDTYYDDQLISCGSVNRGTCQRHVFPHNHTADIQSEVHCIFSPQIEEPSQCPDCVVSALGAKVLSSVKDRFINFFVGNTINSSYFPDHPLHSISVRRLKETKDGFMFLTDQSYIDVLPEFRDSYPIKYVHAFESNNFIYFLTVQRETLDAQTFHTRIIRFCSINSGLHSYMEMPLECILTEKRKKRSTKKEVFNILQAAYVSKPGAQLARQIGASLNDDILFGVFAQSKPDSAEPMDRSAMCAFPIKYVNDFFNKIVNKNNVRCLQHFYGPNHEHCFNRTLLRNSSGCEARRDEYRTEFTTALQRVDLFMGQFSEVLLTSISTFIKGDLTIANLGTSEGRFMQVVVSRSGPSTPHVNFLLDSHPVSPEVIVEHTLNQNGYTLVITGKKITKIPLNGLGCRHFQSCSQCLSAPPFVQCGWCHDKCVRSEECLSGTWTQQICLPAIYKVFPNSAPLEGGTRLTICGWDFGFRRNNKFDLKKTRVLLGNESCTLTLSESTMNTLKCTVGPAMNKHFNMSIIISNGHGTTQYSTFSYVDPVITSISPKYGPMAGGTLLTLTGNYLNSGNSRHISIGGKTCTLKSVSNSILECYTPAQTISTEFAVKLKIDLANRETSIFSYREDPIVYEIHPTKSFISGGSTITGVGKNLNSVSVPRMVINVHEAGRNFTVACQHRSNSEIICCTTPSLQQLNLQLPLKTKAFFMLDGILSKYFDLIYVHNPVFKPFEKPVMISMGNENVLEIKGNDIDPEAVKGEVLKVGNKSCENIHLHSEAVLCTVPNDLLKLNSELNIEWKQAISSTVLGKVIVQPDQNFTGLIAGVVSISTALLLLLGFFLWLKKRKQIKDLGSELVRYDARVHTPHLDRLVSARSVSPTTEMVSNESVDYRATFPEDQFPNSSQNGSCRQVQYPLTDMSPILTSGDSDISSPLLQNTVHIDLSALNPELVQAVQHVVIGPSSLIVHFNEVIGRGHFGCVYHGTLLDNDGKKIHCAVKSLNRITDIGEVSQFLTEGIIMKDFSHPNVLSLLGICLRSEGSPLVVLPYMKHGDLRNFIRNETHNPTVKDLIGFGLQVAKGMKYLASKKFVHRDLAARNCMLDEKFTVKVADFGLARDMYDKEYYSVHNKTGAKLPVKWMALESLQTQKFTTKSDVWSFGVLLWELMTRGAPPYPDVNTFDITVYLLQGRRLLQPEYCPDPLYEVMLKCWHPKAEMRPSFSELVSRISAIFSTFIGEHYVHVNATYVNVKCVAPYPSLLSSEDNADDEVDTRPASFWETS

SMILES	IC50 [1, 7] [µM]	IC50 [2, 8] [µM]	IC50 [3, 9] [µM]	IC50 [4, 10] [µM]	IC50 [5, 11] [µM]	IC50 [6, 12] [µM]	IC50 [1] [µM]	IC50 [2] [µM]	IC50 [3] [µM]	IC50 [4] [µM]	IC50 [5] [µM]	IC50 [6] [µM]
CC(C)n1c2c(=O)ccc(=O)c2c2c(=O)c3ccccc3c21 [Compound 6b, 5-Isopropyl-5H-indeno[1,2-b]indole-6,9,10-trione]	> 10	> 10	2.9	5.8	1.9	0.17						
CC(C)n1c2c(c3c1-c1ccccc1C3=O)C(=O)CCC2 [Compound 4b, 5-Isopropyl-5,6,7,8-tetrahydroindeno[1,2-b]indole-9,10-dione]							> 10	> 10	> 10	> 10	> 10	> 10
O=c1ccc(=O)c2c1c1c(=O)c3ccccc3c1n2Cc1ccccc1 [Compound 6c, 5-Benzyl 5,6,9,10-tetrahydroindeno[1,2-b]indole-6,9,10-trione]	7.6	> 10	2.5	> 10	3.3	1.3						
